Among the data in patent US20030109550A1, “Substituted indazole compounds for the treatment of inflammation” (priority 2001, published 2003) are melting point and IC50 values, retold here.

As usually defined, the melting point is the temperature, or range, at which the solid turns liquid. In general, IC50 refers to the midpoint of a concentration-inhibition curve.

Data set [1] deals with T1, IKK heterodimer (rhIKK1/IKK2 heterodimer) (Homo sapiens, UniProt O14920+O15111).
T1 construct: made in house; host or cells: insect cells (baculovirus coinfection; SF9 cell paste)
T1 sequence (O15111 1-745): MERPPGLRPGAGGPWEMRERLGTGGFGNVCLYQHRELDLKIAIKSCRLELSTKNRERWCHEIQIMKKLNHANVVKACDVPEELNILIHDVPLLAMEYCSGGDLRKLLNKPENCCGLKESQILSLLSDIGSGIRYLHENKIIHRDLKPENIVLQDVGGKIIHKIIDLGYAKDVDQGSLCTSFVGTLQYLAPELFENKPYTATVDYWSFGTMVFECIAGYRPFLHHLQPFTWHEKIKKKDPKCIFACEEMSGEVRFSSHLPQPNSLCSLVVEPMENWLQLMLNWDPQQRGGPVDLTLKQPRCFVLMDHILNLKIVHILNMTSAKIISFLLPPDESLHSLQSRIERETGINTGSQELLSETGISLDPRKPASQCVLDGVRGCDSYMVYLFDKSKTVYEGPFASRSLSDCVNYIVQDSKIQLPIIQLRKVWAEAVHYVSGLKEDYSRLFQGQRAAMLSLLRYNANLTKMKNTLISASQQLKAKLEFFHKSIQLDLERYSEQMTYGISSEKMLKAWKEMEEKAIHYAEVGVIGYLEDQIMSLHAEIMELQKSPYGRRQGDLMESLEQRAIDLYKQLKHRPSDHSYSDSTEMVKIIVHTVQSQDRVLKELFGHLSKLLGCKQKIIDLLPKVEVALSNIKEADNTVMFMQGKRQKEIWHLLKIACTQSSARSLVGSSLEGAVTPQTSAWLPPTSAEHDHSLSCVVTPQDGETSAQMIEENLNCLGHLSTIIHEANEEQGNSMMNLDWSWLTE
T1 sequence (O14920 1-756): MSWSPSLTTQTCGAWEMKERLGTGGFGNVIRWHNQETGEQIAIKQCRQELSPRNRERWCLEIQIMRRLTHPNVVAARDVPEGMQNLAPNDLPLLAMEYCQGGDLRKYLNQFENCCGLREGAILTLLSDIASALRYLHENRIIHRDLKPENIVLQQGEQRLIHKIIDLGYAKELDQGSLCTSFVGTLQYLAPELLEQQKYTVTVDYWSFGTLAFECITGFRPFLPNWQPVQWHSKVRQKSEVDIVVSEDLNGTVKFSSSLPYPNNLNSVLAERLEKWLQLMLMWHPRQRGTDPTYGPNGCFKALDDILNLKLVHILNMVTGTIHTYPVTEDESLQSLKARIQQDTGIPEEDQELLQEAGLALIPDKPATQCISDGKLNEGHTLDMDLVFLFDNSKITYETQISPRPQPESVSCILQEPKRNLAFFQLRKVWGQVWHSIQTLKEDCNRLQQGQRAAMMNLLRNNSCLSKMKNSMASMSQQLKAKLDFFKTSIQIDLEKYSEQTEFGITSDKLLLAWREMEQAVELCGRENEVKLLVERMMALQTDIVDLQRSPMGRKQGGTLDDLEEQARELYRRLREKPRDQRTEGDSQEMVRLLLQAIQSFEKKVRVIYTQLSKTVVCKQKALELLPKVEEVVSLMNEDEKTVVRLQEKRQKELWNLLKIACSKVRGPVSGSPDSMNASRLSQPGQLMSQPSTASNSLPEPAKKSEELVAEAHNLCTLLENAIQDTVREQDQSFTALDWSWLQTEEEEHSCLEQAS
Kind of data set: IKK heterodimer Resin Enzyme Assay. The data set is classed as biochemical. To be noted: biotinylated IκBα peptide 5 μM, 1 μM ATP, 25° C., 30 min; read-out: HetD (IKK heterodimer Resin Enzyme Assay expressed as IC50). The text has this:
cDNAs of human IKK1 and IKK2 were amplified by reverse transcriptase-polymerase chain reaction from human placental RNA (Clonetech). hIKK1 was subcloned into pFastBac HTa (Life Technologies) and expressed as N-terminal His6-tagged fusion protein. The hIKK2 cDNA was amplified using a reverse oligonucleotide primer which incorporated the peptide sequence for a FLAG-epitope tag at the C-terminus of the IKK2 coding region (DYKDDDDKD). The hIKK2:FLAG cDNA was subcloned into the baculovirus vector pFastBac. The rhIKK2 ([…]) mutant was constructed in the same vector used for wild type rhIKK2 using a QuikChange™ mutagenesis kit (Stratagene) Viral stocks of each construct were used to infect insect cells grown in 40L suspension culture. […] Cell lysates were stored at −80° C. until purification of the recombinant proteins was undertaken as described in the succeeding sections.
Isolation of rhIKK1/IKK2 Heterodimer
The heterodimer enzyme was produced by coinfection in a baculovirus system (FLAG IKK2/IKK1 His; MOI=0.1 and I=72 hrs). Infected cells were centrifuged and the cell pellet (10.0 g) was suspended in 50 ml of buffer A. The protein suspension was microfluidized and centrifuged at 100,000×g for 45 min. Imidazole was added to the supernatant to a final concentration of 10 mM. The protein was allowed to bind 25 ml of Ni-NTA resin by mixing for 2 hrs. The protein-resin slurry was poured into a 25 ml column and washed with 250 ml of buffer A containing 10 mM imidazole followed by 125 ml of buffer A containing 50 mM imidazole. Buffer A, containing 300 mM imidazole, was then used to elute the protein. A 75 ml pool was collected and NP-40 was added to a final concentration of 0.1%. The protein solution was then dialyzed against buffer B. The dialyzed heterodimer enzyme was then allowed to bind to 25 ml of anti-FLAG M2 agarose affinity gel overnight with constant mixing. The protein-resin slurry was then centrifuged for 5 min at 2,000 rpm. The supernatant was collected and the resin re-suspended in 100 ml of buffer C containing 0.1% NP-40. The resin was washed with 375 ml of buffer C containing 0.1% NP-40. The protein-resin was poured into a 25 ml column and the enzyme eluted using buffer B containing FLAG peptide. Enzyme fractions (100 ml) were collected and concentrated to 20 ml using an Amicon membrane with molecular weight cut-off of 30 kDa. Bovine serum albumin was added to the concentrated enzyme to final concentration of 0.1%. The enzyme was then aliquoted and stored at −80° C.
IKK heterodimer Resin Enzyme Assay
IKK heterodimer kinase activity was measured using a biotinylated IκBα peptide (Gly-Leu-Lys-Lys-Glu-Arg-Leu-Leu-Asp-Asp-Arg-His-Asp-Ser32-Gly-Leu-Asp-Ser36-Met-Lys-Asp-Glu-Glu) (American Peptide Co.). […] ATP was measured using a Top-Count NXT (Packard).

As to `CCOc1ccc2c(C(N)=O)nn(-c3ccc(S(N)(=O)=O)cc3)c2c1` [Example 13, 1-[4-(aminosulfonyl)phenyl]-6-ethoxy-1H-indazole-3-carboxamide], the melting point lay in the range of 213 to 214 °C.

In the case of `CNc1cccc(-c2ccc3c(C(N)=O)nn(-c4ccc(S(N)(=O)=O)cc4)c3c2)c1` [Example 7, 1-[4-(aminosulfonyl)phenyl]-6-[3-(methylamino)phenyl]-1H-indazole-3-carboxamide], the melting point is 159 to 160 °C.

`Cc1cc(-c2ccc3c(C(N)=O)nn(-c4ccc(S(N)(=O)=O)cc4)c3c2)ccc1F` [Example 5, 1-[4-(aminosulfonyl)phenyl]-6-(4-fluoro-3-methylphenyl)-1H-indazole-3-carboxamide] registered a melting point of 300 to 302 °C.

For the compound `CN(C)c1cccc(-c2ccc3c(C(N)=O)nn(-c4ccc(S(N)(=O)=O)cc4)c3c2)c1` [Example 6, 1-[4-(aminosulfonyl)phenyl]-6-[3-(dimethylamino)phenyl]-1H-indazole-3-carboxamide], the melting point was in the range of 237 to 238 °C. In addition, the IC50 in data set [1] was greater than 100 µM.

The compound `COc1ccc(-c2ccc3c(C(N)=O)nn(-c4ccc(S(N)(=O)=O)cc4)c3c2)cc1` [Example 1, 1-[4-(aminosulfonyl)phenyl]-6-(4-methoxyphenyl)-1H-indazole-3-carboxamide] had a melting point of 258 to 259 °C. Also, the IC50 in data set [1] was greater than 100 µM.

With `Cc1ccc2c(C(N)=O)nn(-c3ccc(S(N)(=O)=O)cc3)c2c1` [Example 9, 1-[4-(aminosufony)phenyl]-6-methyl-1H-indazole-3-carboxamide], the melting point was 251 to 252 °C.

In turn, `NC(=O)c1nn(-c2ccc(S(N)(=O)=O)cc2)c2ccncc12` [Example 8, 1-[4-(aminosulfonyl)phenyl]-1H-pyrazolo[4,3-c]pyridine-3-carboxamide] gave a melting point of 301 to 302 °C.

`NC(=O)c1nn(-c2ccc(S(N)(=O)=O)cc2)c2cc(Cc3ccccc3)ccc12` [Example 12, 1-[4-(aminosulfonyl)phenyl]-6-benzyl-1H-indazole-3-carboxamide]: the melting point is 207 to 209 °C.

Compound `COc1cccc(-c2ccc3c(C(N)=O)nn(-c4ccc(S(N)(=O)=O)cc4)c3c2)c1` [Example 11, 1-[4-(aminosulfonyl)phenyl]-6-(3-methoxyphenyl)-1H-indazole-3-carboxamide] had a melting point of 229 to 230 °C. Also, the IC50 in data set [1] turned out to be 1 µM.

Regarding `CCc1ccc2c(C(N)=O)nn(-c3ccc(S(N)(=O)=O)cc3)c2c1` [Example 14, 1-[4-(aminosulfonyl)phenyl]-6-ethyl-1H-indazole-3-carboxamide], the melting point is 249 to 251 °C.

`CC(C)(C)c1ccc(-c2ccc3c(C(N)=O)nn(-c4ccc(S(N)(=O)=O)cc4)c3c2)cc1` [Example 4, 1-[4-(aminosulfonyl)phenyl]-6-(4-tert-butylphenyl)-1H-indazole-3-carboxamide] showed a melting point of 262 to 263 °C. In data set [1], the IC50 was greater than 100 µM.

`Cc1cccc(-c2ccc3c(C(N)=O)nn(-c4ccc(S(N)(=O)=O)cc4)c3c2)c1` [Example 3, 1-[4-(aminosulfonyl)phenyl]-6-(3-methylphenyl)-1H-indazole-3-carboxamide] came in with a melting point of 261 to 263 °C.

Regarding `NC(=O)c1nn(-c2ccc(S(N)(=O)=O)cc2)c2cc(-c3ccccc3)ccc12` [Example 10, 1-[4-(aminosulfonyl)phenyl]-6-phenyl-1H-indazole-3-carboxamide], the melting point was in the range of 232 to 234 °C.

Consider `NC(=O)c1nn(-c2ccc(S(N)(=O)=O)cc2)c2cc(-c3ccc(F)cc3)ccc12` [Example 2, 1-[4-(aminosulfonyl)phenyl]-6-(4-fluorophenyl)-1H-indazole-3-carboxamide], for which the melting point is 314 to 315 °C.

`NC(=O)c1nn(-c2ccc(S(N)(=O)=O)cc2)c2cc(-c3cccnc3)ccc12` [Example 15, 1-[4-(aminosulfonyl)phenyl]-6-pyridin-3-yl-1H-indazole-3-carboxamide] came in with a melting point of 310 to 313 °C.
